The subject of the test is CEM cells HIV-1 protection, formazan growth assay. Briefly: NCI AIDS Antiviral Assay. The following applies: for IC50: measured here: growth of uninfected CEM cells. Summed up: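 Screen of anti-HIV-1 activity in human CEM cells using a formazan-based growth measurement at five drug concentrations. Hits with 50% or greater protection were repeated, and confirmation required reproducible complete protection.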

Calls of active or inactive are those of the source.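 Rule for the calls: active = compounds giving half or more protection of infected cells from virus-caused growth loss, again on retest; inactive = the rest.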

For `Cc1cc(C)nc(NS(=O)(=O)c2ccc(Nc3c4ccccc4nc4ncccc34)cc2)n1`, the outcome was inactive.

As to `CCN(CC)CC(=O)NC1c2ccccc2Oc2c(C)cccc21` (configuration not stated), the EC50 (as a rule, the concentration at which the effect is half-maximal) was above 288 µM and the IC50 (commonly the point on the concentration scale where inhibition reaches its midpoint) is 145 µM.

As for `NC(=O)c1n[nH]c(C2OC(CO)C(O)C2O)n1` (configuration not stated), the EC50 is above 200 µM and the IC50 was found to be 170 µM.

With `Cc1cc2c(C)nn(Cc3ccccc3)c2c(C(=O)O)c1C`, the EC50 is above 123 µM and the IC50 was above 123 µM.

As to `CC(=O)OCC1OC(n2c(=O)n(-c3ccccc3)c(=O)c3ccccc32)C(OC(C)=O)C(OC(C)=O)C1OC(C)=O` (configuration not stated), the EC50 was above 24 µM and the IC50 was above 24 µM.

Take `COc1ccc(NC(=S)/C(=C(\[O-])c2ccc([N+](=O)[O-])cc2)[n+]2ccc(C(C)C)cc2)cc1`: the EC50 is above 200 µM and the IC50 is above 100 µM.

Regarding `CN1COc2c(n(C)c(=O)[nH]c2=O)C1`, the EC50 is above 200 µM and the IC50 stood at 120 µM.

Turning to `C[Si](C)(C)C#CCOC=C1CC1`, the result was inactive.

As to `Cc1noc2c1N=C(c1cccs1)CC(c1c(Cl)cccc1Cl)C2` (configuration not stated), the EC50 is above 19.1 µM and the IC50 was above 19.1 µM.

Turning to `C=C1C(=O)OC(CCCCCCCCCCCCC)C1C(=O)O` (configuration not stated), the EC50 was above 3.24 µM and the IC50 is above 3.24 µM.

For the compound `CC(C)C1OC2(C)OC(=N)C1(C#N)C(C#N)(C#N)C2C` (configuration not stated), the EC50 was above 200 µM and the IC50 came to 12 µM.

Regarding `O=S(Nc1ccccc1)c1ccc(-c2ccccc2)cc1` (configuration not stated), the EC50 was above 200 µM and the IC50 is above 200 µM.

On to `CC(C)(CO)N1C(=O)c2ccccc2C1(O)c1ccc(Cl)cc1` (configuration not stated), for which the EC50 was above 200 µM and the IC50 was determined as 91.2 µM.

Regarding `COc1cccc(/C=N/[N-]C(=O)c2ccncc2)c1[O-].[Co+2].[OH3+]`, the EC50 is above 20.9 µM and the IC50 is above 20.9 µM.

As for `CO/C(=N\N=C\c1ccc(Cl)cc1)c1ccncc1`, the EC50 is above 200 µM and the IC50 was above 200 µM.

`CCOP(=O)(OCC)C(Cc1ccc(OC)c(OC)c1)N=C(c1ccccc1)c1ccccc1` (configuration not stated): the EC50 is above 200 µM and the IC50 stood at 29.5 µM.

Consider `CCOC(=O)c1nc2ccc(C(F)(F)F)cc2nc1Oc1ccc(C(=O)OC)cc1`, for which the EC50 is above 200 µM and the IC50 was above 200 µM.

Turning to `Cc1cc2[n-]c1/C=c1\[n-]/c(c(CCC(=O)O)c1C)=C\c1[n-]c(c(C)c1CCC(=O)O)/C=c1/cc(C)/c([n-]1)=C/2.[Co]`, the EC50 was above 24 µM and the IC50 is above 24 µM.

Consider `Cc1cc(CO)c(O)c(CNCc2cc(C)cc(CO)c2O)c1`, for which the EC50 was above 200 µM and the IC50 worked out at 8.71 µM.

As to `N#CCN(CC#N)C1CC=CCC1N(CC#N)CC#N` (configuration not stated), the EC50 is above 200 µM and the IC50 was 102 µM.

For the compound `CC(C)OP(=O)(CP(=O)(OC(C)C)OC(C)C)CP(=O)(OC(C)C)OC(C)C`, the EC50 is above 537 µM and the IC50 was 93.3 µM.

In the case of `COC(=O)/C(=C/c1ccc(OC)cc1)C(C(=O)O)=C1CCCCC1`, the EC50 is above 398 µM and the IC50 was 5.62 µM.

As to `CCCNC(=O)N(CC(C)C)S(=O)(=O)c1ccc(Cl)cc1`, the outcome was inactive.

`CC(=O)NNC(=S)/N=C/c1c(O)cc(C)oc1=O`: the EC50 was above 200 µM and the IC50 is above 200 µM.

With `Clc1ccc2cccc3c2c1C1OC3c2ccccc21` (configuration not stated), the result was inactive.

For `Cc1cc2c(c3[nH]c4ccccc4c13)C(=O)c1ccccc1C2=O`, the EC50 was above 3.39 µM and the IC50 is above 3.39 µM.

Consider `C1CCC2C(C1)CCCC2NC1=NCCO1` (configuration not stated), for which the EC50 was above 200 µM and the IC50 was 115 µM.

For the compound `CS(=O)(=O)CSCSSCS(C)(=O)=O`, the EC50 is above 427 µM and the IC50 turned out to be 20 µM.

Regarding `O=S1(=O)OCCOS(=O)(=O)C1Cl`, the EC50 was above 1050 µM and the IC50 came to 178 µM.

Turning to `O=C1Nc2ccccc2C1(O)Cc1ccccn1` (configuration not stated), the EC50 was above 1050 µM and the IC50 was above 1050 µM.

For `CCOC(=O)CC1=NC(=Nc2cc(Cl)ccc2Cl)SC1`, the EC50 was above 77.6 µM and the IC50 is above 77.6 µM.

`Oc1cc(-n2cccn2)c(O)cc1-n1cccn1`: the EC50 is above 77.6 µM and the IC50 is 14.1 µM.

Regarding `C/C(=N/NC(=O)C(N)=O)C(CC(C(=O)Nc1ccccc1C)/C(C)=N\NC(=O)C(N)=O)C(=O)Nc1ccccc1C` (configuration not stated), the EC50 is above 158 µM and the half-inhibitory concentration (IC50) came out at 79.4 µM.

On to `C1CSCCSCSCCS1`, for which the EC50 was above 44.7 µM and the IC50 is above 44.7 µM.

In the case of `COc1c2c(cc3ccc(=O)oc13)CCO2`, the EC50 is above 204 µM and the IC50 is above 204 µM.

For `Brc1ccc(C=NC23CC4CC(CC(C4)C2)C3)cc1`, the EC50 is above 56.2 µM and the IC50 was above 56.2 µM.

`O=C(CC(C(=O)c1cccs1)c1ccccc1)c1ccccc1O` (configuration not stated): the EC50 is above 200 µM and the IC50 came out at 115 µM.

Take `C/C=C1\CN2CCc3c([nH]c4ccccc34)C2C=C1CCO` (configuration not stated): the EC50 was above 170 µM and the IC50 is above 170 µM.

As for `CCOC(=O)C(N=C(c1ccccc1)c1ccccc1)N(C(=O)OC(C)(C)C)C(=O)OC(C)(C)C` (configuration not stated), the outcome was inactive.

Turning to `CC1=CC2C(=O)N(c3ccccc3)C(=O)C2CC1n1[nH]c(=O)n(Cc2ccccc2)c1=O` (configuration not stated), the EC50 was above 302 µM and the IC50 is above 302 µM.

Consider `CC(=O)CCC1(c2ccccc2)OC(=O)C(C#N)=C1c1ccccc1` (configuration not stated), for which the result was inactive.

With `Cc1cccc(C(C)(C)C)c1NC(=O)C(=O)C(c1cnc2ccccc2n1)[N+](=O)[O-]` (configuration not stated), the EC50 is above 324 µM and the IC50 stood at 120 µM.

Take `Cc1ccc(S(=O)(=O)OC[C@H]2CC=CC[C@H]2COS(=O)(=O)c2ccc(C)cc2)cc1`: the EC50 is above 200 µM and the IC50 was above 200 µM.

Regarding `NC(=S)Nc1[nH]c(=S)nc2c1SC1=N/C(=C\c3ccco3)C(=O)N12`, the EC50 is above 200 µM and the IC50 came to 81.3 µM.

For `O=C(O)CCC1(CCC(=O)O)CCCCCCCCC(CCC(=O)O)(CCC(=O)O)C(=O)C1=O`, the EC50 is above 200 µM and the half-maximal inhibitory concentration (IC50) was above 200 µM.

As for `Cc1ccc2nc(NC(=S)SSC(=S)Nc3nc4ccc(C)cc4s3)sc2c1`, the EC50 was above 200 µM and the IC50 came out at 0.537 µM.

Regarding `COc1cc(OC)nc(-n2c(N)c(C(=O)O)c3ccc([N+](=O)[O-])cc3c2=O)n1`, the EC50 was above 200 µM and the IC50 was found to be 42.7 µM.

`COc1cccc(OC)c1OC(=O)Nc1ccccc1F` registered an EC50 above 200 µM and an IC50 above 200 µM.

Take `COC(=O)C1=CCON(c2ccccc2)C1c1ccccc1` (configuration not stated): the EC50 was above 45.7 µM.

Regarding `C[C@@H]1OCN(C(=O)c2ccccc2SSc2ccccc2C(=O)N2CO[C@H](C)[C@H]2C(=O)O)[C@H]1C(=O)O`, the EC50 was above 200 µM and the IC50 is above 200 µM.

On to `Cc1ccc(Oc2nc(Cl)nc(Oc3ccc(C)cc3)n2)cc1`, for which the EC50 is above 200 µM and the IC50 was above 200 µM.

Regarding `CC1CCC(=NNS(=O)(=O)c2ccc(N)cc2)CC1` (configuration not stated), the EC50 was above 129 µM and the half-maximal inhibitory concentration (IC50) was above 129 µM.

`O=[N+]([O-])c1ccc(N2N=C(c3ccc(NCc4nc5ccccc5[nH]4)cc3)CC2c2ccco2)cc1` (configuration not stated): the EC50 was above 15.1 µM and the IC50 was above 15.1 µM.

As to `CCCCCCCCCCCCCCCCNc1nc(=O)n(C2CC(N=[N+]=[N-])C(CO)O2)cc1C` (configuration not stated), the EC50 is above 200 µM and the IC50 was 9.33 µM.

Take `COc1c(Cl)cc(Cc2cc(C(=CCC[C@H]3CC[C@@]4(C)[C@@H](CC[C@@H]5[C@@H]4CC[C@]4(C)[C@@H](C(C)CCCC(C)C)CC[C@@H]54)C3)c3cc(Cc4cc(Cl)c(OC)c(C(=O)O)c4)c(OC)c(C(=O)O)c3)cc(C(=O)O)c2OC)cc1C(=O)O` (some centres not stated): the EC50 is 16.2 µM and the IC50 came to 107 µM.

As to `O=C1OC(=Nc2ccccc2Cl)c2ccccc21`, the EC50 was above 200 µM and the IC50 is above 200 µM.

For `FC(F)(F)c1cc(Cl)c2ccc3ccccc3c2n1`, the outcome was inactive and the IC50 turned out to be 12.6 µM.

Turning to `NC(N)=NS(=O)(=O)c1ccc(Nc2c3ccccc3nc3c(C(=O)N4CCN(CCO)CC4)ccc(Cl)c23)cc1`, the EC50 is above 38 µM and the IC50 is above 38 µM.

Take `CC(=O)O[C@]1(C(C)=O)CC[C@H]2[C@@H]3C[C@H](C)C4=CC(=O)C=C[C@]4(C)[C@@]3(F)[C@@H](O)C[C@@]21C`: the outcome was inactive.

In the case of `Oc1cc(C2OCCCO2)cc(O)c1O`, the EC50 was above 229 µM and the IC50 was 191 µM.

For `N#C/C(=C\c1ccc(O)c(O)c1)C(=O)NCN1CCN(C(=O)/C(C#N)=C/c2ccc(O)c(O)c2)CC1`, the EC50 is above 200 µM and the IC50 was 19.1 µM.

As for `CCCCc1c2c(nc3c1CCc1cc4cc5c(nc4nc1-3)-c1nc3c(c(CCCC)c1CC5)CCC/C3=C\c1ccccc1)/C(=C/c1ccccc1)CCC2`, the EC50 is above 1.95 µM and the IC50 is above 1.95 µM.

For `COc1cc(C(=O)O)c(-c2cc3c(cc2C=O)OCO3)c(OC)c1OC`, the EC50 is above 692 µM and the IC50 was above 692 µM.

As to `Cc1ccccc1N=C1SCC(=O)N1c1ccccc1C`, the EC50 is 141 µM and the IC50 amounted to 191 µM.

For the compound `CN(C)CCC(/C=C/c1ccccc1)=N\Nc1ccc(Cl)c(Cl)c1`, the outcome was inactive.

Turning to `O=C1NC2(NC(=O)C1=O)Nc1ccccc1S2`, the EC50 was above 28.8 µM and the IC50 was above 28.8 µM.

As to `O=c1cc(CCl)n2cnc3c(ncn3C3OC(CO)C(O)C3O)c2n1` (configuration not stated), the outcome was inactive.

`O=[N+]([O-])c1ccc(C2OC3CC4C5CCCC5C3C4O2)cc1` (configuration not stated): the EC50 was above 200 µM and the IC50 was 19.5 µM.

Turning to `CC(NC(=O)C(=O)N/N=C1\CC(c2ccccc2)Oc2ccccc21)c1ccccc1` (configuration not stated), the result was inactive.

Regarding `Cc1ccc(C(=O)Cc2nc3c([nH]c2=O)c(C)nn3-c2ccccc2)c(C)c1`, the EC50 is above 200 µM and the IC50 was above 200 µM.

On to `COC(=O)c1cc(OS(=O)(=O)C(F)(F)F)c(=O)n2c1CCCC2`, for which the EC50 is above 200 µM and the IC50 was 89.1 µM.

`O=C1OC(=O)C2=C1CCc1ccccc12`: the outcome was inactive.

For the origin of these results see PubChem BioAssay AID179 (DTP/NCI, 2004).
